Laboratory results reported in patent US11464770B2, “Anticancer pharmaceutical composition” (NATIONAL CANCER CENTER, priority 2016, dated 2022).
Read-outs that look alike come from different tables or passages of the source.

Columns and labels:
[1] = system: colorectal cancer cell lines (e.g. DLD-1, HCT 116, SW620, HCT-15, HCT-8, RKO); assay: Cell based assay, cell viability (CellTiter-Glo), colorectal cancer cell lines
Outline: (§1)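 Each commercial line was plated and allowed 24 h to settle at constant temperature. Compound exposure ran 72 h at final concentrations spanning 0 to 2 μM. Cell viability was then determined by luminescent ATP detection.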

[2] = system: ovarian cancer cell lines; assay: Cell based assay, cell viability (CellTiter-Glo), ovarian cancer cell lines; conditions: Homo sapiens; OVCAR-3 cells
Outline: as §1

[3] = Homo sapiens, DLD-1, 72 hours treatment, read-out: IC50, colorectal cancer cell line DLD-1
[4] = Homo sapiens, HCT 116, 72 hours treatment, read-out: IC50, colorectal cancer cell line HCT 116
[5] = Homo sapiens, HCT-8, 72 hours treatment, read-out: IC50, colorectal cancer cell line HCT-8
[6] = Homo sapiens, HCT-15, 72 hours treatment, read-out: IC50, colorectal cancer cell line HCT-15
[7] = Homo sapiens, HT-29, 72 hours treatment, read-out: IC50, colorectal cancer cell line HT-29
[8] = Homo sapiens, LoVo, 72 hours treatment, read-out: IC50, colorectal cancer cell line LoVo
[9] = Homo sapiens, SW480, 72 hours treatment, read-out: IC50, colorectal cancer cell line SW480
[10] = Homo sapiens, SW-620, SW620, 72 hours treatment, read-out: IC50, colorectal cancer cell line SW620
[11] = RKO, 72 hours treatment, read-out: IC50, colorectal cancer cell line RKO

Row | Compound | IC50 [1, 3] [nM] | IC50 [1, 4] [nM] | IC50 [1, 5] [nM] | IC50 [1, 6] [nM] | IC50 [1, 7] [nM] | IC50 [1, 8] [nM] | IC50 [1, 9] [nM] | IC50 [1, 10] [nM] | IC50 [1, 11] [nM] | IC50 [2] [nM]
1 | CC(=O)c1c([S+]([O-])Cc2ccc(F)cc2F)[nH]c2c(Br)ccc(Cl)c2c1=O (stereo not shown) [Compound 29, 3-acetyl-8-bromo-5-chloro-2-((2,4-difluorobenzyl)sulfinyl)quinolin-4(1H)-one] | 870 | 1210 | 1710 | 1400 | > 10000 | > 2000 | > 2000 | 1380 | 1570 | 800
2 | CC(=O)c1c([S+]([O-])Cc2ccc(F)c(Cl)c2)[nH]c2c(Br)ccc(Cl)c2c1=O (stereo not shown) [Compound 31, 3-acetyl-8-bromo-5-chloro-2-((3-chloro-4-fluorobenzyl)sulfinyl)quinolin-4(1H)-one] | 820 | 1180 | 1420 | 1250 | > 10000 | > 2000 | 1660 | 1350 | 1420 | 710
3 | CC(=O)c1c([S+]([O-])Cc2ccc([N+](=O)[O-])cc2)[nH]c2c(Br)ccc(Cl)c2c1=O (stereo not shown) [Compound 33, 3-acetyl-8-bromo-5-chloro-2-((4-nitrobenzyl)sulfinyl)quinolin-4(1H)-one] | 940 | 1330 | 1650 | 1530 | > 10000 | > 2000 | > 2000 | 1510 | 1500 | 1180
4 | CC(=O)c1c(S(=O)(=O)Cc2ccccc2)[nH]c2c(Br)ccc(Cl)c2c1=O [Compound 34, 3-acetyl-2-(benzylsulfonyl)-8-bromo-5-chloroquinolin-4(1H)-one] | 1320 | 1840 | > 2000 | 1950 | > 10000 | > 2000 | > 2000 | 1870 | > 2000 | 990
5 | CC(=O)c1c([S+]([O-])Cc2cc(Cl)ccc2Cl)[nH]c2c(Br)ccc(Cl)c2c1=O (stereo not shown) [Compound 44, 3-acetyl-8-bromo-5-chloro-2-((2,5-dichlorobenzyl)sulfinyl)quinolin-4(1H)-one] | 890 | 1200 | 1660 | 1480 | > 10000 | > 2000 | 1340 | 1450 | 1150 | 840
6 | CC(=O)c1c([S+]([O-])Cc2cc(F)cc(F)c2)[nH]c2c(Br)ccc(Cl)c2c1=O (stereo not shown) [Compound 46, 3-acetyl-8-bromo-5-chloro-2-((3,5-difluorobenzyl)sulfinyl)quinolin-4(1H)-one] | 1260 | 1820 | > 2000 | 1940 | > 10000 | > 2000 | > 2000 | 1750 | 1830 | 1020
7 | CC(=O)c1c([S+]([O-])Cc2cccc(F)c2)[nH]c2c(Br)ccc(Cl)c2c1=O (stereo not shown) [Compound 50, 3-acetyl-8-bromo-5-chloro-2-((3-fluorobenzyl)sulfinyl)quinolin-4(1H)-one] | 990 | 1390 | 1990 | 1590 | > 10000 | > 2000 | > 2000 | 1580 | 1770 | 890
8 | CC(=O)c1c([S+]([O-])Cc2cc(C)on2)[nH]c2c(Br)ccc(Cl)c2c1=O (stereo not shown) [Compound 51, 3-acetyl-8-bromo-5-chloro-2-(((5-methylisoxazol-3-yl)methyl)sulfinyl)quinolin-4(1H)-one] | 660 | 840 | 1210 | 1010 | > 10000 | 1640 | 950 | 1000 | 1100 | 850
9 | COc1cccc(C[S+]([O-])c2[nH]c3c(Br)ccc(Cl)c3c(=O)c2C(C)=O)c1 (stereo not shown) [Compound 55, 3-acetyl-8-bromo-5-chloro-2-((3-methoxybenzyl)sulfinyl)quinolin-4(1H)-one] | 1150 | 1810 | > 2000 | 1810 | > 10000 | > 2000 | > 2000 | 1910 | > 2000 | 920
10 | CC(=O)c1c([S+]([O-])Cc2ccc(SC(F)(F)F)cc2)[nH]c2c(Br)ccc(Cl)c2c1=O (stereo not shown) [Compound 56, 3-acetyl-8-bromo-5-chloro-2-((4-((trifluoromethyl)thio)benzyl)sulfinyl)quinolin-4(1H)-one] | 800 | 1190 | 1690 | 1320 | > 10000 | > 2000 | > 2000 | 1910 | 1530 | 1090
11 | CC(=O)c1c([S+]([O-])Cc2ccc([N+](=O)[O-])cc2)[nH]c2c(Cl)ccc(Cl)c2c1=O (stereo not shown) [Compound 57, 3-acetyl-5,8-dichloro-2-((4-nitrobenzyl)sulfinyl)quinolin-4(1H)-one] | > 2000 | > 2000 | > 2000 | > 2000 | > 10000 | > 2000 | > 2000 | > 2000 | > 2000 | > 2000

Next, values leading:

Row | IC50 [1, 3] [nM] | IC50 [1, 4] [nM] | IC50 [1, 5] [nM] | IC50 [1, 6] [nM] | IC50 [1, 7] [nM] | IC50 [1, 8] [nM] | IC50 [1, 9] [nM] | IC50 [1, 10] [nM] | IC50 [1, 11] [nM] | IC50 [2] [nM] | Compound
12 | 890 | 1110 | 1500 | 1270 | > 10000 | > 2000 | > 2000 | 1350 | 1560 | 840 | COc1cc(C[S+]([O-])c2[nH]c3c(Br)ccc(Cl)c3c(=O)c2C(C)=O)cc(OC)c1 (stereo not shown) [Compound 59, 3-acetyl-8-bromo-5-chloro-2-((3,5-dimethoxybenzyl)sulfinyl)quinolin-4(1H)-one]
13 | 1480 | 1940 | > 2000 | 1800 | > 10000 | > 2000 | > 2000 | > 2000 | > 2000 | > 2000 | CC(=O)c1c([S+]([O-])Cc2ccc(C(C)(C)C)cc2)[nH]c2c(Br)ccc(Cl)c2c1=O (stereo not shown) [Compound 60, 3-acetyl-8-bromo-2-((4-(tert-butyl)benzyl)sulfinyl)-5-chloroquinolin-4(1H)-one]
14 |  | 1370 | 1630 | 1360 | > 10000 | > 2000 | > 2000 | 1650 | 1690 | 900 | CC(=O)c1c([S+]([O-])Cc2ccc([S+]([O-])C(F)(F)F)cc2)[nH]c2c(Br)ccc(Cl)c2c1=O (stereo not shown) [Compound 64, 3-acetyl-8-bromo-5-chloro-2-((4-((trifluoromethyl)sulfinyl)benzyl)sulfinyl)quinolin-4(1H)-one]
15 | 920 | 1320 | 1540 | 1190 | > 10000 | > 2000 | > 2000 | 1710 | 1630 | 1180 | CC(=O)c1c([S+]([O-])Cc2ccc(C(F)(F)F)cc2)[nH]c2c(Br)ccc(Cl)c2c1=O (stereo not shown) [Compound 70, 3-acetyl-8-bromo-5-chloro-2-((4-(trifluoromethyl)benzyl)sulfinyl)quinolin-4(1H)-one]
16 | 1150 | 1730 | > 2000 | 1620 | > 10000 | > 2000 | > 2000 | > 2000 | > 2000 | 1310 | CC(=O)c1c([S+]([O-])Cc2ccc(OC(F)(F)F)cc2)[nH]c2c(Br)ccc(Cl)c2c1=O (stereo not shown) [Compound 71, 3-acetyl-8-bromo-5-chloro-2-((4-(trifluoromethoxy)benzyl)sulfinyl)quinolin-4(1H)-one]
17 | 740 | 940 | 1240 | 990 | > 2000 | 1920 | 1410 | 1240 | 1350 | 730 | CC(=O)c1c([S+]([O-])Cc2ccc(C(F)(F)F)o2)[nH]c2c(Br)ccc(Cl)c2c1=O (stereo not shown) [Compound 72, 3-acetyl-8-bromo-5-chloro-2-(((5-(trifluoromethyl)furan-2-yl)methyl)sulfinyl)quinolin-4(1H)-one]
